The text below walks through data of paper PMC6925188, “PBRM1 acts as a p53 lysine-acetylation reader to suppress renal tumor growth” (Nature Communications, 2019).

Where no end group is shown, it is not given here. The star is where a group is joined. Biotin = O=C1N[C@H]2[C@H](CS[C@H]2CCCCC(=O)*)N1

One assay has as its system PBRM1-p53 interaction. As to the kind of experiment: Co-immunoprecipitation of Flag-PBRM1 and Myc-p53 (anti-Flag M2) in H1299 cells. In kind it is cell-based. From the text:
Fig. 1 PBRM1 and p53 display a physical association that is enhanced after DNA damage. a U2OS cells (left) and HEK293T cells (right) were transfected with vector or Flag-PBRM1 and harvested for immunoprecipitation with Flag-M2 beads and elution with 3X Flag peptide. […] Lysates were subjected to immunoprecipitation with Flag-M2 beads. […] Lysates were immunoprecipitated with p53 antibody. The bound PBRM1 and p53 were examined by immunoblots. Source data are provided as a Source Data file.
For anti-Flag immunoprecipitation, cell pellets harvested from one 10 cm culture dish were resuspended in 500 µl hypotonic buffer (10 mM Tris-HCl, pH 8.0, 1.5 mM MgCl2, 10 mM KCl) with protease and phosphatase inhibitors, 2 μM TSA and 10 mM NAM, and samples were incubated on ice for 15 min. Twenty-five microliters of Triton X-100 was added and samples were vortexed for 10 s. After centrifuging for 30 s at 14,000 × g, supernatants were removed and pellets were resuspended in 100 µl hypertonic buffer (20 mM Tris-HCl pH 8.0, 420 mM KCl, 1.5 mM MgCl2, 20% (v/v) glycerol) with protease and phosphatase inhibitors, 2 μM TSA and 10 mM NAM and vortexed for 10 s. Pellets were incubated on ice for 40 min and vortexed for 15 s every 10 min. After centrifuging for 10 min at 14,000 × g, supernatants were collected and diluted with 300 µl EBC buffer (50 mM Tris-HCl (pH 7.5), 120 mM NaCl, 0.5% NP-40) with protease and phosphatase inhibitors, 2 μM TSA and 10 mM NAM. […] Beads were washed four times with EBC buffer and eluted with 3X Flag peptide (F4799, Sigma-Aldrich) overnight at 4 °C. The input and Flag-elution were analyzed by SDS-PAGE and immunoblot.
Supplementary Figure 2. […]
a. Vectors, Flag-PBRM1 or Myc-p53 were transfected into H1299 cells as indicated, and treated with 5 µM nicotinamide or vehicle. Lysates were used for anti-Flag immunoprecipitation and 3X Flag peptide elution. The inputs and eluates were immunoblotted with the indicated antibodies. […]
Flag-PBRM1, wildtype or K382Q mutated Myc-p53 were transfected into H1299 cells with indicated combinations. Lysates were used for anti-Flagimmunoprecipitation followed by Flag peptide elution. […]

In assay [1] the test system is ACHN, Caki-1 and Ren-01 cells. As to the kind of experiment: Immunoblot of p53 targets, kidney cancer cells with PBRM1 shRNA knockdown. It counts as cell-based. As to conditions: 10 μM Nutlin-3a. Here is the method: Lysates were analyzed by immunoblots. c RCC4 cells with or without p53 KO were transfected with vector or Flag-PBRM1 at the indicated amounts. […] Cells were harvested for RT-qPCR (g) or ChIP followed by qPCR (h). […] Representative data is shown in i. Quantification of cell cycle phase is shown in j. Source data are provided as a Source Data file.
After washing with ice-cold PBS, cells were scraped on ice and centrifuged at 10,000 × g for 1 min at 4 °C. For immunoblot analysis, cell pellets were lysed in 1% SDS containing a protease inhibitor cocktail followed by sonication with a FB50 sonic dismembrator (Fisher Scientific) at 20% amplitude for 15 s twice. After centrifuging for 10 min at 14,000 × g, the supernatants were combined with 5X SDS loading buffer (5% mercaptoethanol, 0.05% Bromophenol blue, 30% glycerol, 10% SDS, 250 mM Tris-HCl (pH 6.8)), boiled for 5 min and used in SDS-PAGE. After standard western blot procedures, the blots were developed using the ImageQuant LAS 4000 (GE healthcare Life Sciences) or ChemiDoc MP Imaging System (Bio-rad) with HyGLO™ Chemiluminescent HRP Detection Reagent (E2500, Denville Scientific) or Immobilon™ Western Chemiluminescent HRP Substrate (WBKLS0500, Millipore). […]
the indicated times. Lysates were analyzed via immunoblots. b. […]
were analyzed by immunoblots. c. […]
Lysates were analyzed via immunoblots. e. […]
Lysates were analyzed via immunoblots. f, g, h. […]
(In western blotting, separated proteins are transferred to a membrane and probed.)

The next assay concerns endogenous PBRM1. As to the kind of experiment: Peptide pull-down, endogenous PBRM1 from cell lysates. It counts as binding. As to conditions: H1299 lysate, Supplementary Fig. 2e, f. Here is the method: Fig. 2 Acetylation on K382 of p53 promotes PBRM1 binding. a Schematic depiction of the functional domains of p53 and truncated constructs. FL full-length, TAD transactivation domain, PRD proline-rich domain, DBD DNA-binding domain, TD tetramerization domain, CTD C-terminal domain. b HEK293T cells were transfected with vectors, Flag-PBRM1, Myc-p53 and Myc-p53 truncated constructs. After immunoprecipitation with Flag-M2 beads, the inputs and eluates were analyzed by immunoblots. c Vectors, Flag-PBRM1, Myc-p53 and HA-Tip60, HA-PCAF, HA-CBP or HA-p300 were transfected into HEK293T cells as indicated. Lysates were used for anti-Flag immunoprecipitation and 3X Flag peptide elution. The inputs and eluates were analyzed by immunoblots. d HEK293T cells were transfected with Flag-PBRM1, Myc-p53 and HA-p300. The amount of HA-p300 was titrated as indicated. Lysates were used in immunoprecipitations with Flag-M2 beads, and inputs and eluates were analyzed by immunoblots. e Vectors, Flag-PBRM1, HA-p300 and Myc-p53 (WT) or Myc-p53 6KR mutant were transfected into HEK293T cells as indicated. Lysates were used for anti-Flag immunoprecipitation and 3X Flag peptide elution. Inputs and eluates were examined by immunoblots. […] The peptides were pulled down with streptavidin beads and the associated proteins were analyzed by immunoblots. […]

Another assay relates to BDs of PBRM1. As to conditions: shorter peptide, residues 375–388, 14 residues; cited from earlier work. The text has this: Although acetylation is indispensable for p53′s transcriptional function and SWI/SNF complexes function as transcriptional co-factors, no acetylation-dependent interaction has been reported between p53 and SWI/SNF complexes. In this study, we report that acetylation on p53 lysine 382 enhanced the interaction between PBRM1 and p53 via recognition by PBRM1 BD4. […] The difference is likely due to the length of the peptides used. In our experiments, the p53 peptide used was much longer than theirs (368–393, 26 re ...

`NC(=O)c1cccnc1` [Nicotinamide]: in the assay with PBRM1-p53 interaction (H1299, 5 µM nicotinamide), the PBRM1-p53 interaction result is “enhanced”.
`COc1ccc(C2=N[C@@H](c3ccc(Cl)cc3)[C@@H](c3ccc(Cl)cc3)N2C(=O)N2CCNC(=O)C2)c(OC(C)C)c1` [Nutlin-3a]: the “p21 induction by p53 with PBRM1 knockdown” value in assay [1] is “reduced”.
In the case of “K382Q: Biot-K382Q (368-393) p53 peptide (Biotin-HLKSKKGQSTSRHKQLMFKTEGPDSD; UniProt P04637 368-393, looked up, variant K382Q)”, the “binding to PBRM1 of K382Q peptide” value in the assay with endogenous PBRM1 was “failed to mimic K382Ac to enhance binding to PBRM1”.
Turning to bleomycin, in the assay on PBRM1-p53 interaction (H1299, etoposide 50 μM or bleomycin 10 μg/ml), the “PBRM1 and exogenous p53 protein levels” value is “neither the PBRM1 nor the exogenous p53 levels changed”. The PBRM1-p53 interaction entry in the assay with PBRM1-p53 interaction (H1299 co-transfected with PBRM1 and p53, bleomycin 10 μg/ml) was “enhanced”.
For “p53 K382Ac peptide (375–388): p53 K382Ac peptide of previous report, 375–388, 14 residues (QSTSRHKK(Ac)LMFKTE; not fully specified; UniProt P04637 375-388, looked up, fragment)”, the “binding of PBRM1 BDs to p53 K382Ac peptide” value in the assay with BDs of PBRM1 is reported as “did not bind”.
